Entries after “also recorded” stand apart in the source; their conditions may differ.
How the values were obtained:
[1] = test system: Sortilin −/− hippocampal CA1 synapses; assay: NMDA receptor-dependent LTD in Sortilin −/− hippocampal slices (f-EPSP recording); assay type: cell-based, mouse; details: 40 ng/ml for at least 1 h before recording and throughout, LFS 1 Hz, 15 min
Protocol: FIG. 3: Impaired NMDA receptor-dependent LTD in Sortilin −/− and SorCS1 −/− mice. A, lack of LTD in sortilin −/− hippocampal CA1 synapses by the application of LFS (1 Hz, 15 min) to the Schaffer collaterals. In wt hippocampal CA1 synapses a LFS induces synaptic depression. B, rescue of NMDA receptor-dependent LTD in Sortilin −/− hippocampal CA1 synapses by cleavage-resistant proBDNF. […] LFS (1 Hz, 15 min) was applied to the Schaffer collaterals. In Sortilin −/− hippocampal slices incubated with control vehicle the LTD was still impaired. C, a similar experiment showing rescue of NMDA receptor-dependent LTD in sortilin −/− hippocampal CA1 synapses by 40 ng/ml purified soluble Sortilin. D, a similar experiment showing lack of LTD in SorCS1 −/− hippocampal CA1 synapses. […]
SorCS2 −/− mice were backcrossed onto a C57BL/6 background for more than ten generations and wild type C57BL/6 mice were used as control. […] After a recovery period of at least two h, the slices were moved to an interface chamber exposed to a humidified atmosphere of 95% O2 and 5% CO2 and we recorded field Exitatory Post-Synaptic Potentials (f-EPSP) using an Axoclamp-2B amplifier (Axon Instruments) with an artificial cerebral spinal fluid (ACSF; in mM: 126 NaCl, 2.5 KCl, 1.25 NaH2PO4, 2.5 CaCl2, 1.3 MgCl2, 10 D-glucose)-filled glass microelectrode (10-15 MΩ) positioned in the stratum radiatum of hippocampal area CA1. […]

[2] = test system: patient suffering from a mental and behavioural disorder; assay: Passive delivery device implanted into the brain of a patient with a mental and behavioural disorder (Examples 18, 19); assay type: in vivo, human; details: device for passive delivery surgically implanted into the brain
Source text: (§1) The soluble domain of human Sortilin is expressed recombinantly at a large scale in a mammalian cell culture and is subsequently purified by for example immunoaffinity chromatography. A device for passive delivery containing purified soluble Sortilin is surgically implanted into the brain of a patient suffering from a mental and behavioural disorder. Good effect is obtained and the patient is set on lifelong treatment.
as §1, with “chromatography. Similarly, proBDNF is expressed and purified at a large scale. Soluble Sortilin and proBDNF is incubated together to form a preformed Sortilin:proBDNF complex.” for “chromatography.”, “preformed Sortilin:proBDNF” for “soluble Sortilin”

[3] = test system: granule cells of the dentate gyrus; assay: GABAergic activity (sIPSCs), whole-cell patch-clamp in acute brain slices; assay type: cell-based, mouse; details: for GABAergic activity (in words): Sortilin −/− mouse brain slices
Protocol: FIG. 8: Neuronal GABA activity is increased in Sortilin and SorCS2 −/− mice, and can be rescued by BDNF. A, model describing how dentate gyrus granule cells are under powerful inhibitory control by GABAergic basket cells. The basket cell excitability is in turn depressed by BDNF released from the granule cells (Holm et al. Submitted, 2008) B, the GABAergic activity was assessed by electrophysiological recordings from single neurons in an in vitro mouse brain slice preparation (P16-P20). In each experimental condition, the frequency of spontaneous inhibitory postsynaptic currents (sIPSCs) was measured in Hz. In control mice (wildtype, WT) the GABAergic activity was 2.96±0.53 Hz (n=33 cells). In Sortilin −/− (Sortilin KO) mice, this activity increased to 6.15±0.80 Hz (n=25 cells). In rescue experiments, exogenous BDNF (20 ng/ml) reversed the GABA activity of Sortilin KO mice back to WT levels, reaching 2.66±1.4 Hz (n=3 cells). For comparison, the GABAergic activity in SorCS2 −/− (SorCS2 KO) mice was 5.68±0.7 Hz (n=6), highlighting the importance of Vps10p proteins in these inhibitory cell functions. Error bars indicate S.E.M.
3-4 week wildtype and Sortilin deficient mice were examined for neurophysiological in vitro correlates of anxiety/depression like behavior. In fresh 350 μm thick brain slices, inhibitory GABAergic synaptic input to hippocampal granule cells were quantified in living tissues. Electrophysiological patch-clamp recordings were carried out from acute brain slices from WT, Sortilin and Sorcs2 knockout (KO) mice. Following deep isoflurane anesthesia, male mice were sacrifized and the brain was carefully dissected out and cooled. 350 um thick brain slices were cut on a Vibratome 3000 Plus, and the tissue rested in O2/CO2 bubbled Ringer solution for at least 1 hour before experimentation (Drasbek and Jensen 2006). Whole-cell patch-clamp recordings were carried out at 33° C. from the soma of identified granule cells of the dentate gyrus (Jensen and Mody 2001). Under conditions of blocked glutamatergic excitation, GABAergic activity was apparent as spontaneous inhibitory postsynaptic currents (sIPSCs) that could be blocked by the GABAA receptor antagonist SR95531 (100 μM). For each cell, the frequency of sIPSCs was analyzed and frequencies were pooled within each experimental group. In rescue experiments, BDNF (brain-derived neurotrophic factor, 20 ng/ml) was perfused to the brain slice for at least 5 min and the GABAergic activity was assessed. […] Subsequently, the pathophysiological neuronal activity was restored in Sortilin deficient mouse brain slices by administering exogenous brain-derived neurotrophic factor (BDNF 20 ng/ml) to the tissue bathing solution (FIG. 8B).

In the case of “soluble Sortilin: purified soluble Sortilin, the luminal (Vps10p-domain) part of the receptor”, the “NMDA receptor-dependent LTD” value [1] is reported as “rescued”, the “NMDA receptor-dependent LTD” value ([1]; listed as recombinant soluble Sortilin) is reported as “rescued” and the “effect of treatment in the patient” value [2] is reported as “Good effect”.

With `Br.COc1ccc(-c2ccc(=N)n(CCCC(=O)O)n2)cc1` [SR95531, reference compound] the “spontaneous inhibitory postsynaptic currents (sIPSCs)” value ([3]; 100 μM, blocked glutamatergic excitation) was “blocked”.

B1: mature BDNF: mature brain-derived neurotrophic factor (protein)
chain: HSDPARRGELSVCDSISEWVTAADKKTAVDMSGGTVTVLEKVPVSKGQLKQYFYETKCNPMGYTKEGCRGIDKRHWNSQCRTTQSYVRALTMDSKKRIGWRFIRIDTSCVCTLTIKRGR
B1 was tested, and the “frequency of spontaneous inhibitory postsynaptic currents (sIPSCs)” value ([3]; Sortilin KO mouse brain slices, 20 ng/ml, n=3 cells) was 2.66±1.4 Hz, the “GABAergic activity (in words)” value ([3]; 20 ng/ml) was “restored” and the “GABAergic activity (in words)” value ([3]; 20 ng/ml, listed as exogenous BDNF) was “normalizes; also recorded: reversed”.

Source: patent publication US8703125B2, “Modulation of the Vps10p-domain receptor family for the treatment of mental and behavioural disorders” (H. Lundbeck A/S, priority 2008, dated 2014)
